Data: patent US10988466B2, “Heterocyclic derivatives useful as SHP2 inhibitors” (Jacobio Pharmaceuticals Co., Ltd., priority 2017, dated 2021)

Key:
MV-4-11 = assay: Cell proliferation assay (MTS/PMS); format: cell-based; conditions: Homo sapiens, MV4-11; MV-4-11 cell proliferation, MTS/PMS readout at day 8, compounds added 24 hours after plating; read-out: IC50
SHP2 = target: T1, SHP2 (Homo sapiens, UniProt Q06124); assay: biochemical; conditions: read-out: SHP2 inhibition (%)@0.1 μM;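 further: compounds preincubated 30 min at room temperature in the assay mixture, activity referenced to a 0.5% (v/v) DMSO control taken as 100%, run in triplicate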
T1 sequence (Q06124 1-593): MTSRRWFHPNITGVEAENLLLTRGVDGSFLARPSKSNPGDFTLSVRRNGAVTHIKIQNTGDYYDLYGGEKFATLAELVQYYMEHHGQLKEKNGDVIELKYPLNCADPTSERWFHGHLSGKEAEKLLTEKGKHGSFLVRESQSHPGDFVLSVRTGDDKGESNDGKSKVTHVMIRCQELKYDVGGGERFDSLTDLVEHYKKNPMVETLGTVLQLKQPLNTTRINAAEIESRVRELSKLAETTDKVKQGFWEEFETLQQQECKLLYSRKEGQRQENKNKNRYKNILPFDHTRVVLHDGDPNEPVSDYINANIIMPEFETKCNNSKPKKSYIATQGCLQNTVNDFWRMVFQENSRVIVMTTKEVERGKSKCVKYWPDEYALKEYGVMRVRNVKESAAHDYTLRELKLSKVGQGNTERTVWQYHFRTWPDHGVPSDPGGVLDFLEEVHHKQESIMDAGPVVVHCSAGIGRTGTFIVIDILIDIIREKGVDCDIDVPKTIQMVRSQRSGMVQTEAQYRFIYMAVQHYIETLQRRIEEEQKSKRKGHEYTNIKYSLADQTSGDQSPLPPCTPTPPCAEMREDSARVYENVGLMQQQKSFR

| SMILES | IC50 (MV-4-11) | inhibition at 0.1 µM (SHP2) |
| --- | --- | --- |
| Nc1nccc(Sc2cnc(N3CCC4(CC3)Nc3ccccc3[C@H]4N)cn2)c1Cl [Example 71, (R)-1′-(5-((2-amino-3-chloropyridin-4-yl)thio)pyrazin-2-yl)spiro[indoline-2, 4′-piperidin]-3-amine] | 13 nM | 86% |
| COc1cccc2c1CC1(CCN(c3cnc(Sc4ccnc(N)c4Cl)c(N)n3)CC1)[C@@H]2N [Example 14, (S)-1′-(6-amino-5-((2-amino-3-chloropyridin-4-yl)thio)pyrazin-2-yl)-4-methoxy-1,3-dihydrospiro[2,4′-piperidin]-1-amine] | 6 nM | 82% |
| Nc1nc(N2CCC3(CC2)Cc2nc4ccccc4cc2[C@H]3N)cnc1Sc1ccnc(N)c1Cl [Example 64, (S)-1′-(6-amino-5-((2-amino-3-chloropyridin-4-yl)thio)pyrazin-2-yl)-1,3-dihydrospiro[cyclopenta [b]quinoline-2, 4′-piperidin]-1-amine] | 8.1 nM | 66% |
| Nc1nc(N2CCC3(CC2)Cc2ncccc2[C@H]3N)cnc1Sc1ccnc(N)c1F [Example 91, (S)-1′-(6-amino-5-((2-amino-3-fluoropyridin-4-yl)thio)pyrazin-2-yl)-5,7-dihydrospiro [cyclopenta [b]pyridine-6,4′-piperidin]-5-amine] | 12 nM | 88% |
| Nc1nccc(Sc2cnc(N3CCC4(CC3)Cc3sc(Cl)nc3[C@H]4N)cn2)c1Cl [Example 95, (S)-1′-(5-((2-amino-3-chloropyridin-4-yl)thio)pyrazin-2-yl)-2-chloro-4,6-dihydrospiro [cyclopenta[d]thiazole-5,4′-piperidin]-4-amine] | 10 nM | 73% |
| Nc1nc(N2CCC3(CC2)Cc2ncccc2[C@H]3N)cnc1Sc1ccnc2ccccc12 [Example 83, (S)-1′-(6-amino-5-(quinolin-4-yl-thio)pyrazin-2-yl)-5,7-dihydrospiro [cyclopenta[b]pyridine-6,4′-piperidin]-5-amine] | 16 nM | 91% |
| Nc1nccc(Sc2cnc(N3CCC4(CC3)Oc3ccccc3[C@H]4N)cn2)c1Cl [Example 56, (R)-1′-(5-((2-amino-3-chloropyridin-4-yl)thio)pyrazin-2-yl)-3H-spiro[benzofuran-2,4′-piperidin]-3-amine] | 10.4 nM | 71% |
| Nc1nc(N2CCC3(CC2)Cc2nc(Cl)sc2[C@H]3N)cnc1Sc1ccnc(N)c1Cl [Example 69, (S)-1′-(6-amino-5-((2-amino-3-chloropyridin-4-yl)thio)pyrazin-2-yl)-2-chloro-4,6-dihydro-spiro[cyclopenta[d]thiazole-5,4′-piperidin]-6-amine] | 4 nM | 89% |
| Nc1nccc(Sc2cnc(N3CCC4(CC3)Cc3nc(Cl)sc3[C@H]4N)cn2)c1Cl [Example 68, (S)-1′-(5-((2-amino-3-chloropyridin-4-yl)thio)pyrazin-2-yl)-2-chloro-4,6-dihydrospiro[cyclopenta [d]thiazole-5,4′-piperidin]-amine] | 4.9 nM | 82% |
| Nc1nc(N2CCC3(CC2)Cc2ccccc2[C@H]3N)cnc1Sc1ccnc(Cl)c1Cl [Example 66, (S)-1′-(6-amino-5-((2,3-dichloropyridin-4-yl)thio)pyrazin-2-yl)-1,3-dihydro-spiro[indene-2,4′-piperidin]-1-amine] |  | 72% |
| Nc1nc(N2CCC3(CC2)Cc2ccncc2[C@H]3N)cnc1Sc1ccnc(N)c1Cl [Example 21, (S)-1′-(6-amino-5-((2-amino-3-chloropyridin-4-yl)thio)pyrazin-2-yl)-5,7-dihydrospiro[cyclopenta [c]pyridine-6,4′-piperidin]-7-amine] |  | 49% |
| Nc1nc(N2CCC3(CC2)Cc2ncc(Cl)cc2[C@H]3N)cnc1Sc1ccnc(N)c1Cl [Example 73, (S)-1′-(6-amino-5-((2-amino-3-chloropyridin-4-yl)thio)pyrazin-2-yl)-3-chloro-5,7-dihydro-spiro[cyclopenta[b]pyridine-6,4′-piperidin]-5-amine] |  | 80% |
| COc1cc2c(cn1)[C@@H](N)C1(CCN(c3cnc(Sc4ccnc(N)c4Cl)c(N)n3)CC1)C2 [Example 20] |  | 86% |
| Nc1nc(N2CCC3(CC2)Cc2cc(F)c(Br)cc2[C@H]3N)cnc1Sc1ccnc(N)c1Cl [Example 38, (S)-1′-(6-amino-5-((2-amino-3-chloropyridin-4-yl)thio)pyrazin-2-yl)-6-bromo-5-fluoro-1,3-dihydrospiro[indene-2,4′-piperidin]-1-amine] |  | 75% |
| Nc1nc(N2CCC3(CC2)Cc2ccc(N4CCOCC4=O)cc2[C@H]3N)cnc1Sc1ccnc(N)c1Cl [Example 62, (S)-4-(1-amino-1′-(6-amino-5-((2-amino-3-chloropyridin-4-yl)thio)pyrazin-2-yl)-1,3-dihydrospiro [indene-2,4′-piperidin]-6-yl) morpholin-3-one] |  | 76% |

The next lines start with the values.

| IC50 (MV-4-11) | inhibition at 0.1 µM (SHP2) | SMILES |
| --- | --- | --- |
| 9 nM | 87% | N[C@@H]1c2cccnc2CC12CCN(c1cnc(Sc3ccnc(Cl)c3Cl)cn1)CC2 [Example 104, (S)-1′-(5-((2,3-dichloropyridin-4-yl)thio)pyrazin-2-yl)-5,7-dihydrospiro [cyclopenta [b]pyridine-6,4′-piperidin]-5-amine] |
| 11 nM |  | Nc1nc(N2CCC3(CC2)Cc2ncccc2[C@H]3N)cnc1Sc1ccnc(Cl)c1Cl [Example 105, (S)-1′-(6-amino-5-((2,3-dichloro-pyridin-4-yl)thio)pyrazin-2-yl)-5,7-dihydrospiro[cyclo-penta[b]pyridine-6,4′-piperidin]-5-amine] |
| 18 nM | 89% | COc1nccc(Sc2cnc(N3CCC4(CC3)Cc3ncccc3[C@H]4N)cn2)c1Cl [Example 99, (S)-1′-(5-((3-chloro-2-methoxy-pyridin-4-yl)thio)pyrazin-2-yl)-5,7-dihydrospiro [cyclopenta[b]pyridine-6,4′-piperidin]-5-amine] |
| 46.1 nM | 80% | Nc1nccc(Sc2cnc(N3CCC4(CC3)Cc3ncsc3[C@H]4N)cn2)c1Cl [Example 156, (S)-1′-(5-((2-amino-3-chloropyridin-4-yl)thio)pyrazin-2-yl)-4,6-dihydrospiro[cyclopenta[d]thiazole-5,4′-piperidin]-6-amine] |
| 3.3 nM | 89% | Nc1nc(N2CCC3(CC2)Cc2ccc(O)cc2[C@H]3N)cnc1Sc1ccnc(N)c1Cl [Example 137, (S)-1-amino-1′-(6-amino-5-((2-amino-3-chloropyridin-4-yl)thio)pyrazin-2-yl)-1,3-dihydrospiro[indene-2,4′-piperidin]-6-ol] |
| 30 nM | 87% | Nc1cc(Sc2cnc(N3CCC4(CC3)Cc3ncccc3[C@H]4N)cn2)c(Cl)cn1 [Example 112, (S)-1′-(5-((2-amino-5-chloro-pyridin-4-yl)thio)pyrazin-2-yl)-5,7-dihydrospiro [cyclopenta [b]pyridine-6,4′-piperidin]-5-amine] |
| 30 nM | 88% | COc1nccc(Sc2ncc(N3CCC4(CC3)Cc3ncccc3[C@H]4N)nc2N)c1Cl [Example 100, (S)-1′-(6-amino-5-((3-chloro-2-methoxypyridin-4-yl)thio)pyrazin-2-yl)-5,7-dihydro-spiro[cyclopenta [b]pyridine-6,4′-piperidin]-5-amine] |
|  | 81% | N#Cc1ncccc1Sc1cnc(N2CCC3(CC2)Cc2ncccc2[C@H]3N)cn1 [Example 117, (S)-3-((5-(5-amino-5,7-dihydrospiro [cyclopenta[b]pyridine-6,4′-piperidin]-1′-yl)pyrazin-2-yl)thio) picolinonitrile] |
|  | 79% | N=C1c2csc(Br)c2CC12CCN(c1cnc(Sc3ccnc(N)c3Cl)c(N)n1)CC2 [Example 145, 3-((2-amino-3-chloropyridin-4-yl)thio)-6-(1-bromo-4-imino-4H,6H-spiro [cyclopenta[c]thiophene-5,4′-piperidin]-1′-yl)pyrazin-2-amine] |
|  | 71% | Nc1cnccc1Sc1ncc(N2CCC3(CC2)Cc2ncccc2[C@H]3N)nc1N [Example 109, (S)-1′-(6-amino-5-((3-aminopyridin-4-yl)thio)pyrazin-2-yl)-5,7-dihydrospiro[cyclo-penta[b]pyridine-6,4′-piperidin]-5-amine] |
|  | 86% | N[C@@H]1c2cccnc2CC12CCN(c1cnc(Sc3ccnc(O)c3Cl)cn1)CC2 [Example 135, (S)-4-((5-(5-amino-5,7-dihydrospiro [cyclopenta[b]pyridine-6,4′-piperidin]-1′-yl)pyrazin-2-yl)thio)-3-chloropyridin-2-ol] |
|  | 88% | CC(=O)c1cccc2c1CC1(CCN(c3cnc(Sc4ccnc(N)c4Cl)c(N)n3)CC1)[C@@H]2N [Example 159, (S)-1-(1-amino-1′-(6-amino-5-((2-amino-3-chloropyridin-4-yl)thio)pyrazin-2-yl)-1,3-dihydrospiro[indene-2,4′-piperidin]-4-yl)ethan-1-one] |
